Our source for the IC50 values is ChEMBL document CHEMBL1159224, “A new cytotoxic dihydroxy sterol from the soft coral Alcyonium patagonicum” (J Nat Prod, 1995).

By IC50 is commonly meant the concentration that gives 50% inhibition. Read a low IC50 as higher potency.

For this test, the system named is P388. Nature of the test: Cytotoxicity against mouse P388 cells. Format: functional, cell-based.

Converted amounts (≈) assume the structure as drawn.

As to `C=C(CC[C@@H](C)[C@H]1CC[C@H]2[C@@H]3C[C@@H](O)C4=C[C@@H](O)CC[C@]4(C)[C@H]3CC[C@]12C)C(C)C`, the concentration for half-maximal inhibition (IC50) came out at 1 µg/mL (≈ 2.41 µM).
